According to PubChem BioAssay AID248 (DTP/NCI, 2004):
“And” between values parts separate entries of the source, which are not always exact repeats. Identical values can stand only once. Inconclusive results and toxic doses are left out. Cut-off read from the data, not from the text of the source: active = T/C of 150% or more; inactive = T/C below 125%.

System: L1210 leukemia ip in BDF1 mice, survival T/C
Assay: NCI In Vivo Anticancer Drug Screen. Data for tumor model L1210 Leukemia (intraperitoneal) in B6D2F1 (BDF1) mice
Settings: endpoint: mean survival time, higher = longer survival
Procedure, shortened: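 Survival endpoint. Drug-treated group vs vehicle group, expressed as T divided by C. Tumor passaged by transplantation.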

[1] = dose: 100.0 mg/kg/injection, schedule: Q01DX009 (ip), vehicle: saline
[2] = dose: 200.0 mg/kg/injection, schedule: Q01DX009 (ip), vehicle: saline
[3] = dose: 400.0 mg/kg/injection, schedule: Q01DX009 (ip), vehicle: saline
[4] = dose: 100.0 mg/kg/injection, schedule: Q04DX002 (ip), vehicle: saline with Tween-80
[5] = dose: 200.0 mg/kg/injection, schedule: Q04DX002 (ip), vehicle: saline with Tween-80
[6] = dose: 100.0 mg/kg/injection, schedule: Q01DX001 (ip), vehicle: carboxymethylcellulose (CMC)
[7] = dose: 200.0 mg/kg/injection, schedule: Q01DX001 (ip), vehicle: carboxymethylcellulose (CMC)
[8] = dose: 400.0 mg/kg/injection, schedule: Q01DX001 (ip), vehicle: carboxymethylcellulose (CMC)
[9] = dose: 100.0 mg/kg/injection, schedule: Q01DX009 (ip), vehicle: Klucel (hydroxypropylcellulose) (HPC)
[10] = dose: 100.0 mg/kg/injection, schedule: Q04DX003 (ip), vehicle: Klucel (hydroxypropylcellulose) (HPC)
[11] = dose: 200.0 mg/kg/injection, schedule: Q01DX009 (ip), vehicle: Klucel (hydroxypropylcellulose) (HPC)
[12] = dose: 200.0 mg/kg/injection, schedule: Q04DX003 (ip), vehicle: Klucel (hydroxypropylcellulose) (HPC)
[13] = dose: 400.0 mg/kg/injection, schedule: Q01DX009 (ip), vehicle: Klucel (hydroxypropylcellulose) (HPC)
[14] = dose: 400.0 mg/kg/injection, schedule: Q04DX003 (ip), vehicle: Klucel (hydroxypropylcellulose) (HPC)
[15] = dose: 200.0 mg/kg/injection, schedule: Q01DX001 (sc), vehicle: steriod suspending solution
[16] = dose: 400.0 mg/kg/injection, schedule: Q01DX001 (sc), vehicle: steriod suspending solution
[17] = dose: 100.0 mg/kg/injection, schedule: Q04DX003 (ip), vehicle: saline
[18] = dose: 200.0 mg/kg/injection, schedule: Q04DX003 (ip), vehicle: saline
[19] = dose: 100.0 mg/kg/injection, schedule: Q01DX001 (ip), vehicle: saline
[20] = dose: 200.0 mg/kg/injection, schedule: Q01DX001 (ip), vehicle: saline
[21] = dose: 400.0 mg/kg/injection, schedule: Q01DX001 (ip), vehicle: saline

Measured: T/C

CCCCCCCCCCCCOP(OCCCCCCCCCCCC)OCCCCCCCCCCCC
inactive: [1] 90 % of control | [2] 88 % of control | [3] 93 % of control

C/C=C/c1cc(C)cc(C)c1OC(C)CC (stereo not given)
inactive: [4] 104 % of control | [5] 93 % of control

CCCCCCCC(=O)N1CCCCC1CC (stereo not given)
inactive: [4] 96 % of control | [5] 86 % of control

COc1ccc(C2=C(c3ccccc3)C(c3ccccc3)=C(c3ccc(OC)cc3)C2=O)cc1
inactive: [6] 89 % of control | [7] 89 % of control | [8] 91 % of control

O=[N+]([O-])c1cccc(N=Cc2ccccc2)c1
inactive: [9] 117 % of control | [10] 88 % of control | [11] 111 % of control | [12] 96 % of control | [13] 88 % of control | [14] 97 % of control

CC(=O)[C@H]1CC[C@H]2[C@@H]3CCC4=CC(=O)[C@H](C)C[C@]4(C)[C@H]3C(=O)C[C@]12C
inactive: [15] 98 % of control | dose: 200.0 mg/kg/injection, schedule: Q01DX009 (sc), vehicle: steriod suspending solution 100 % of control | [16] 104 % of control | dose: 400.0 mg/kg/injection, schedule: Q01DX009 (sc), vehicle: steriod suspending solution 100 % of control | dose: 600.0 mg/kg/injection, schedule: Q01DX001 (sc), vehicle: steriod suspending solution 96 % of control | dose: 600.0 mg/kg/injection, schedule: Q01DX009 (sc), vehicle: steriod suspending solution 92 % of control | dose: 800.0 mg/kg/injection, schedule: Q01DX001 (sc), vehicle: steriod suspending solution 96 % of control | dose: 800.0 mg/kg/injection, schedule: Q01DX009 (sc), vehicle: steriod suspending solution 92 % of control

CC1N(C)CCC1(C)CN1c2ccccc2Sc2ccccc21 (stereo not given)
inactive: [17] 108 % of control | [18] 102 % of control

O=C1CCCC2C1CCC1C3CCC(O)CC3CCC21 (stereo not given)
inactive: dose: 100.0 mg/kg/injection, schedule: Q01DX001 (sc), vehicle: steriod suspending solution 91 % of control | [15] 93 % of control | [16] 95 % of control

O=C(O)C(CCC(C(=O)O)c1ccccc1)c1ccccc1 (stereo not given)
inactive: dose: 75.0 mg/kg/injection, schedule: Q01DX001 (ip), vehicle: other 110 % of control | dose: 150.0 mg/kg/injection, schedule: Q01DX001 (ip), vehicle: other 116 % of control | dose: 300.0 mg/kg/injection, schedule: Q01DX001 (ip), vehicle: other 95 % of control

O=C1c2ccccc2C(=O)c2c(Cl)ccc(O)c21
inactive: [9] 98 % of control | [10] 97 % of control | [11] 105 % of control | [12] 97 % of control | [13] 101 % of control | [14] 96 % of control

O=[N+]([O-])c1cccc(NSNc2cccc([N+](=O)[O-])c2)c1
inactive: dose: 50.0 mg/kg/injection, schedule: Q01DX001 (ip), vehicle: Klucel (hydroxypropylcellulose) (HPC) 100 % of control | dose: 100.0 mg/kg/injection, schedule: Q01DX001 (ip), vehicle: Klucel (hydroxypropylcellulose) (HPC) 98 % of control | dose: 200.0 mg/kg/injection, schedule: Q01DX001 (ip), vehicle: Klucel (hydroxypropylcellulose) (HPC) 87 % of control

CC1=CCC(O)(C(C)C)CC1 (stereo not given)
inactive: [1] 93 % of control | [2] 93 % of control | [3] 95 % of control

NC(CSSCC(N)=NCCCCCSC12CC3CC(CC(C3)C1)C2)=NCCCCCSC12CC3CC(CC(C3)C1)C2
inactive: dose: 2.5 mg/kg/injection, schedule: Q04DX002 (ip), vehicle: Klucel (hydroxypropylcellulose) (HPC) 100 % of control | dose: 5.0 mg/kg/injection, schedule: Q04DX002 (ip), vehicle: Klucel (hydroxypropylcellulose) (HPC) 100 % of control | dose: 10.0 mg/kg/injection, schedule: Q04DX002 (ip), vehicle: Klucel (hydroxypropylcellulose) (HPC) 100 % of control and 90 % of control

CCN(CC)c1cc(Cl)c(C=O)cc1Br
inactive: [9] 98 % of control | [10] 105 % of control | [11] 100 % of control | [12] 98 % of control | [13] 100 % of control | [14] 104 % of control

COC(C(=O)O)c1cccc2ccccc12 (stereo not given)
inactive: dose: 100.0 mg/kg/injection, schedule: Q04DX002 (ip), vehicle: Klucel (hydroxypropylcellulose) (HPC) 113 % of control | dose: 200.0 mg/kg/injection, schedule: Q04DX002 (ip), vehicle: Klucel (hydroxypropylcellulose) (HPC) 109 % of control | dose: 400.0 mg/kg/injection, schedule: Q04DX002 (ip), vehicle: Klucel (hydroxypropylcellulose) (HPC) 98 % of control

Cc1cc(C)n(/N=C/c2ccccc2)c(=O)c1C#N
inactive: [6] 91 % of control | [7] 91 % of control | [8] 91 % of control

CCOC(=O)c1cc2c3n(c1=O)CCCC3C(c1ccccn1)OC2=O (stereo not given)
inactive: [19] 92 % of control | [20] 98 % of control | [21] 103 % of control

CCOC(=O)/C(C#N)=C\c1cccc2ccccc12
inactive: [19] 98 % of control | dose: 100.0 mg/kg/injection, schedule: Q04DX003 (ip), vehicle: other 92 % of control | [20] 103 % of control | dose: 200.0 mg/kg/injection, schedule: Q04DX003 (ip), vehicle: other 92 % of control | [21] 100 % of control | dose: 400.0 mg/kg/injection, schedule: Q04DX003 (ip), vehicle: other 93 % of control

O=C1C(Cl)=C(Nc2ccc(Cl)c(Cl)c2)C(=O)c2ccccc21
inactive: dose: 100.0 mg/kg/injection, schedule: Q04DX003 (ip), vehicle: saline with Tween-80 98 % of control | dose: 200.0 mg/kg/injection, schedule: Q04DX003 (ip), vehicle: saline with Tween-80 92 % of control | dose: 400.0 mg/kg/injection, schedule: Q04DX003 (ip), vehicle: saline with Tween-80 98 % of control

c1cc2c(c3c1CCCC3)CCCC2
inactive: dose: 50.0 mg/kg/injection, schedule: Q01DX001 (ip), vehicle: carboxymethylcellulose (CMC) 92 % of control | dose: 50.0 mg/kg/injection, schedule: Q01DX009 (ip), vehicle: saline 101 % of control | [6] 97 % of control | [1] 94 % of control | [17] 91 % of control | [7] 91 % of control | [18] 101 % of control | [8] 94 % of control

O=[As](O)(CC(O)COc1ccccc1)c1ccccc1 (stereo not given)
inactive: dose: 6.25 mg/kg/injection, schedule: Q01DX001 (ip), vehicle: saline with Tween-80 98 % of control | dose: 12.5 mg/kg/injection, schedule: Q01DX001 (ip), vehicle: saline with Tween-80 98 % of control

O=C(O)c1ccccc1C(=O)c1ccc(F)cc1
inactive: [19] 96 % of control | [20] 102 % of control | [21] 93 % of control

COc1ccccc1C1CCCCC1OS(C)(=O)=O (stereo not given)
inactive: [6] 103 % of control | [7] 111 % of control | [8] 92 % of control

O=C(NCCCCCCCNC(=O)Nc1ccc(C2=NCCN2)cc1)Nc1ccc(C2=NCCN2)cc1
inactive: dose: 62.0 mg/kg/injection, schedule: Q01DX Z (ip), vehicle: carboxymethylcellulose (CMC) 107 % of control | dose: 125.0 mg/kg/injection, schedule: Q01DX Z (ip), vehicle: carboxymethylcellulose (CMC) 98 % of control | dose: 250.0 mg/kg/injection, schedule: Q01DX Z (ip), vehicle: carboxymethylcellulose (CMC) 98 % of control
